Experimental data taken from the supplement of paper PMC10307832.

Legend:
Assay in all cases: relative viability (nuclei count vs DMSO), 5 days (fraction); higher = more cells survive
[1] = compound: O=C(/C=C/c1cccnc1)NCCCCC1CCN(C(=O)c2ccccc2)CC1 [Daporinad] + O=C(CCCCCCC(=O)Nc1ccccc1)NO [Vorinostat] (partner 1 µM)
Method in brief: (§1)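 Relative viability was taken as the ratio of nuclei in treated wells to nuclei in vehicle wells. Lung cancer cell lines in 1536-well plates received compounds by pin tool one day after seeding, either one drug alone or a fixed anchor-drug dose plus five library-drug doses (not always all listed) in √10 steps. Nuclei were counted on 4× images after 5 days of treatment, and values are medians of duplicate plates.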

[2] = compound: O=C(/C=C/c1cccnc1)NCCCCC1CCN(C(=O)c2ccccc2)CC1 [Daporinad] + COc1cccc2cc(-c3nc([C@H]4CC[C@H](C(=O)O)CC4)n4ncnc(N)c34)[nH]c12 [OSI-027] (partner 0.5 µM)
Method in brief: as §1

[3] = compound: O=C(/C=C/c1cccnc1)NCCCCC1CCN(C(=O)c2ccccc2)CC1 [Daporinad] + Cc1nc(NC(=O)N2CCC[C@H]2C(N)=O)sc1-c1ccnc(C(C)(C)C(F)(F)F)c1 [Alpelisib] (partner 2 µM)
Method in brief: as §1

[4] = compound: O=C(/C=C/c1cccnc1)NCCCCC1CCN(C(=O)c2ccccc2)CC1 [Daporinad] + C[C@]1(O)C[C@@H](c2nc(-c3ccc4ccc(-c5ccccc5)nc4c3)c3c(N)nccn32)C1 [Linsitinib] (partner 1 µM)
Method in brief: as §1

Cell Line | relative viability ([1]; first compound 0.0005 µM) | relative viability ([1]; first compound 0.001581 µM) | relative viability ([1]; first compound 0.005 µM) | relative viability ([1]; first compound 0.01581 µM) | relative viability ([2]; first compound 0.0005 µM) | relative viability ([2]; first compound 0.001581 µM) | relative viability ([2]; first compound 0.005 µM) | relative viability ([2]; first compound 0.01581 µM) | relative viability ([3]; first compound 0.0005 µM) | relative viability ([3]; first compound 0.001581 µM) | relative viability ([3]; first compound 0.005 µM) | relative viability ([3]; first compound 0.01581 µM) | relative viability ([4]; first compound 0.0005 µM) | relative viability ([4]; first compound 0.001581 µM) | relative viability ([4]; first compound 0.005 µM) | relative viability ([4]; first compound 0.01581 µM)
NCI-H522 | 0.995 | 1.13 | 0.946 | 0.544 | 0.612 | 0.942 | 0.762 | 0.667 |  |  |  |  |  |  |  | 
HCC-15 | 0.782 | 0.959 | 0.889 | 0.911 | 0.669 | 0.807 | 0.789 | 0.779 | 0.89 | 0.931 | 1.05 | 0.901 | 0.79 | 0.943 | 0.926 | 0.928
A-427 | 0.838 | 0.886 | 0.793 | 0.659 | 0.435 | 0.471 | 0.503 | 0.31 | 0.948 | 1.15 | 1.04 | 0.852 | 0.96 | 1.08 | 1.1 | 0.881
NCI-H2228 | 0.568 | 0.606 | 0.692 | 0.544 | 0.561 | 0.552 | 0.915 | 0.731 | 0.744 | 0.87 | 0.702 | 0.898 | 0.668 | 0.812 | 0.633 | 0.951
NCI-H1734 | 0.837 | 0.897 | 0.729 | 0.301 | 0.569 | 0.676 | 0.674 | 0.527 | 0.703 | 0.736 | 0.695 | 0.582 | 0.841 | 0.962 | 0.894 | 0.732
NCI-H441 | 0.913 | 0.677 | 0.811 | 0.778 | 0.552 | 0.856 | 0.805 | 0.671 |  | 0.603 | 0.754 | 0.717 | 0.533 | 0.473 | 0.605 | 0.56
PC-3 [JPC-3] | 0.604 | 0.818 | 1.06 | 0.921 | 0.802 | 0.707 | 0.874 | 0.823 | 1.03 | 1.03 | 1.15 | 1.04 | 0.898 | 0.99 | 0.963 | 0.955
NCI-H1915 | 0.52 | 0.605 | 0.634 | 0.462 | 0.613 | 0.641 | 0.719 | 0.712 | 1.04 | 1.09 | 1.14 | 1.11 | 1.13 | 1.17 | 1.09 | 1.11
NCI-H1666 | 0.98 | 1.03 | 0.956 | 1.07 | 0.822 | 0.989 | 0.826 | 0.896 | 1.04 | 1.13 | 1.23 | 0.881 | 0.834 | 0.764 | 0.747 | 0.839
HCC-366 | 0.363 |  | 0.389 | 0.321 | 0.961 | 0.907 | 1.22 | 1.03 | 0.44 | 0.503 | 0.542 | 0.616 | 0.687 | 0.753 | 0.87 | 0.887
NCI-H2170 | 0.769 | 0.81 | 0.827 | 0.822 | 0.66 | 0.734 | 0.793 | 0.699 | 0.811 | 0.825 | 0.795 | 0.839 |  |  |  | 
NCI-H727 | 1.11 | 1.25 | 1.45 | 1.03 | 0.603 | 0.606 | 0.622 | 0.519 | 0.622 | 0.479 | 0.619 | 0.497 | 0.282 | 0.337 | 0.244 | 0.261
RERF-LC-KJ | 0.659 | 0.795 | 0.814 | 0.701 | 0.541 | 0.63 | 0.648 | 0.612 | 0.811 | 0.893 | 0.88 | 0.98 | 0.883 | 0.893 | 1.01 | 0.949
NCI-H2342 | 0.806 | 0.791 | 0.695 | 0.815 | 0.674 | 0.552 | 0.602 | 0.613 |  |  |  |  |  |  |  | 
Calu-6 |  |  |  |  |  |  |  |  | 0.934 | 0.96 | 1.09 | 0.519 | 0.841 | 1.03 | 0.926 | 0.821
LC-2-ad | 0.677 | 0.769 | 0.693 | 0.63 | 0.832 | 1.12 | 1.06 | 1.01 | 0.858 | 0.983 | 0.938 | 0.837 | 0.688 | 0.972 | 0.877 | 0.83
CAL-12T | 0.659 | 0.799 | 0.402 | 0.217 | 0.65 | 0.541 | 0.719 | 0.33 | 1.28 | 1.04 | 0.832 | 0.411 | 0.697 | 0.936 | 0.778 | 0.24
SK-LU-1 | 0.851 | 0.85 | 0.919 | 0.788 | 0.358 | 0.335 | 0.454 | 0.348 | 0.933 | 1.22 | 1.47 | 1.06 | 1.26 | 1.13 | 1.05 | 1.09
NCI-H1650 | 0.518 | 0.746 | 0.547 | 0.322 | 0.637 | 0.655 | 0.733 | 0.825 |  |  |  |  |  |  |  | 
BEN | 0.554 | 0.661 | 0.679 | 0.63 | 0.276 | 0.301 | 0.299 | 0.287 | 0.924 | 0.979 | 1.08 | 1.27 | 0.923 | 0.938 | 0.951 | 1.22
EMC-BAC-2 | 0.319 | 0.567 | 0.421 | 0.301 | 0.393 | 0.435 | 0.326 | 0.202 | 0.822 | 0.773 | 0.544 | 0.223 | 0.904 | 0.797 | 0.802 | 0.339
LU99A | 0.499 | 0.594 | 0.545 | 0.571 | 0.33 | 0.282 | 0.358 | 0.305 | 0.492 | 0.602 | 0.584 | 0.574 | 0.497 | 0.55 | 0.604 | 0.572
